The IC50 is the concentration that gives 50% inhibition. By Ki is commonly meant a measure of affinity in units of concentration, obtained from inhibition or displacement. High values mean a looser hold on the target, low ones a stronger hold on the target.

This note sets out measurements from ChEMBL document CHEMBL2029320 (J Med Chem, 2012).

Assay [1] deals with T1, Relaxin-3 receptor 1 (Homo sapiens, UniProt Q9NSD7).
T1 sequence (Q9NSD7 whole entry): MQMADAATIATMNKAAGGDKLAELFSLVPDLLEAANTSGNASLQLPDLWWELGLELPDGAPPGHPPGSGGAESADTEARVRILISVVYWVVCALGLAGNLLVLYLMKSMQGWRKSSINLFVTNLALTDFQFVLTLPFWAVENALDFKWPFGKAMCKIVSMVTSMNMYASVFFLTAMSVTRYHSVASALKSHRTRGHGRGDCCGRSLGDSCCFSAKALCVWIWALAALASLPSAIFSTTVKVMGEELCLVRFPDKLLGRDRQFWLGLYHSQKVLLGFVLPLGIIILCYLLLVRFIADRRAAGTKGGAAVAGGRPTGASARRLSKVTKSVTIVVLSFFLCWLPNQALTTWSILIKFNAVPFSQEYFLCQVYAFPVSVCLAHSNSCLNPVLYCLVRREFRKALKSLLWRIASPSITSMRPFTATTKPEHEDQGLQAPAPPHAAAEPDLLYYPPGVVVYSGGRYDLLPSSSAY
Put plainly: Agonist activity at RXFP3 expressed in CHO-K1 cells assessed as inhibition of forskolin-induced cAMP accumulation after 6 hrs by beta galactosidase reporter gene assay. In kind it is functional, cell-based. (In general: Changes in cAMP serve as a functional read-out for many G protein-coupled receptors.)

The target in assay [2] is T2, Relaxin receptor 1 (Homo sapiens, UniProt Q9HBX9).
T2 sequence (Q9HBX9 whole entry): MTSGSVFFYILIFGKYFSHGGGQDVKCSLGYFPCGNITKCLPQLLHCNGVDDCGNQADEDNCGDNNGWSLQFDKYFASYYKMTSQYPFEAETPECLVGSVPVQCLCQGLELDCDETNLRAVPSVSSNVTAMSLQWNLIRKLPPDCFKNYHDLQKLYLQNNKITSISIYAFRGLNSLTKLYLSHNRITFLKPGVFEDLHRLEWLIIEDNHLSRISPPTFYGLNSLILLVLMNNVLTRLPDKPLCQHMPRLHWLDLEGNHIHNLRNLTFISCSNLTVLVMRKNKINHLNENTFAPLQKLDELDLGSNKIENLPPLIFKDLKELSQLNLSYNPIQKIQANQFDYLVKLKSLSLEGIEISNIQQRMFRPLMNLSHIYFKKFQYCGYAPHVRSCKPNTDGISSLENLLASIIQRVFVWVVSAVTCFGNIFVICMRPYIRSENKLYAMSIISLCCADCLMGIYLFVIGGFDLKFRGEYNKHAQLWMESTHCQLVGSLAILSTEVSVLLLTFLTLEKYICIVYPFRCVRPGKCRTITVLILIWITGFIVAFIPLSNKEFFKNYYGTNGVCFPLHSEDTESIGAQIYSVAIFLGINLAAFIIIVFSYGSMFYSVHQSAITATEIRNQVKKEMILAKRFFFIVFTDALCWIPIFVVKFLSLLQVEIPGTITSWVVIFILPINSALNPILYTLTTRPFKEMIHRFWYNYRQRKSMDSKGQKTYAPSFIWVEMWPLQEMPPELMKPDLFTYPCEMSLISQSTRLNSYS
As to the kind of experiment: Displacement of europium-labelled H2 relaxin from RXFP1 expressed in HEK-293T cells. In kind it is cell-based.

The target of assay [3] is Relaxin-3 receptor 2 (Homo sapiens, UniProt Q8TDU9). As to the kind of experiment: Agonist activity at RXFP4 expressed in CHO-K1 cells assessed as inhibition of forskolin-induced cAMP accumulation after 6 hrs by beta galactosidase reporter gene assay. It counts as functional, cell-based.
Assay [4] deals with T1, Relaxin-3 receptor 1. Put plainly: Displacement of europium-labelled H3 relaxin-B chain/INSL-5 chain from RXFP3 expressed in CHO-K1 cells. It counts as cell-based.

Relaxin-3 receptor 2, sequence (Q8TDU9 whole entry): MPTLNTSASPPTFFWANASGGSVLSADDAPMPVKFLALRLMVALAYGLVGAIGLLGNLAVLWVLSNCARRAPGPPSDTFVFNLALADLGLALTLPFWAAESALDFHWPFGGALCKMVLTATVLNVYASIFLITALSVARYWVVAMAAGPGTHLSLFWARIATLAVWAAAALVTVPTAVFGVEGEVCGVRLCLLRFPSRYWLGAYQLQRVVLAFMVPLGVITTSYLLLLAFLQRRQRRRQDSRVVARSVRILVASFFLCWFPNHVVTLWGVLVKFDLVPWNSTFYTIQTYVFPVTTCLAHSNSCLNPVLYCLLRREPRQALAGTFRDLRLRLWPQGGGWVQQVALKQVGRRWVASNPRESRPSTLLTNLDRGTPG

On to `CC[C@H](C)[C@@H]1NC(=O)[C@H](Cc2ccccc2)NC(=O)[C@H](CCC(=O)O)NC(=O)[C@H](CCCN=C(N)N)NC(=O)CNC(=O)[C@@H](NC(=O)[C@H](CC(C)C)NC(=O)[C@@H](N)CCCN=C(N)N)CSSC[C@H](N)C(=O)N[C@@H](CCCCN)C(=O)N[C@@H](Cc2c[nH]c3ccccc23)C(=O)NCC(=O)N[C@@H](C)C(=O)N[C@@H](CO)C(=O)N[C@@H](CCCCN)C(=O)N[C@@H](CO)C(=O)N[C@@H](CCC(=O)O)C(=O)N[C@@H]([C@@H](C)CC)C(=O)N[C@@H](CO)C(=O)N[C@@H](CO)C(=O)N[C@@H](CC(C)C)C(=O)N[C@H](C(=O)O)CSSC[C@@H](C(=O)NCC(=O)NCC(=O)N[C@@H](CO)C(=O)N[C@@H](CCCN=C(N)N)C(=O)N[C@@H](Cc2c[nH]c3ccccc23)C(=O)O)NC(=O)[C@H]([C@@H](C)O)NC(=O)[C@H](Cc2ccccc2)NC(=O)[C@H]([C@@H](C)CC)NC(=O)[C@H](C(C)C)NC(=O)[C@H](C)NC(=O)[C@H](CCCN=C(N)N)NC1=O`, for which the IC50 in assay [1] was 5.13 nM; in assay [3], 7.94 nM. Further, the results for the Ki in assay [2] and in assay [4] were above 10000 nM and 112 nM, respectively.
